Reference: patent US10028961B2, “Therapeutically active compounds and their methods of use” (AGIOS PHARMACEUTICALS, INC., priority 2013, dated 2018)
Read-outs that look alike come from different tables or passages of the source.

Key:
[1] = target: IDH1 wt/IDH1 R132C heterodimer (Homo sapiens (Human), UniProt O75874, R132C); test: In vitro assay for IDH1m R132C inhibitors, IDH1 wt/IDH1 R132C heterodimer, NADPH depletion (diaphorase/resazurin); assay type: biochemical; settings: NADPH/NADP
Method: The following describes the experimental procedures that can be used to obtain data on columns 2 and 4 of Table 4 and column 2 of Table 5.
In the primary reaction, the reduction of α-KG acid to 2-HG is accompanied by a concomitant oxidation of NADPH to NADP. The amount of NADPH remaining at the end of the reaction time is measured in a secondary diaphorase/resazurin reaction in which the NADPH is consumed in a 1:1 molar ratio with the conversion of resazurin to the highly fluorescent resorufin.
The mixture of compound, enzyme, and cofactor is pre-incubated at room temperature for 1 hr prior to the addition of alpha-ketoglutarate. To perform the secondary reaction, 10 uL of 1× buffer containing 36 μg/ml diaphorase and […] resazurin is added to the primary reaction and incubated for a further 5 minutes at 25° C. Florescence is read on a Spectramax platereader at Ex 544 Em 590. Compounds or compound dilutions are prepared in 100% DMSO concentration and diluted 1:50 into the final reaction. […] IC50s are determined.
IDH1 or IDH2 wildtype (wt) and mutant heterodimers are expressed and purified by methods known in the art. For example, IDH1wt/R132m heterodimer is expressed and purified as follows. Co-expression of IDH1wt-his and IDH1R132C-flag is carried out in sf9 insect cells. Cells (25 g) are resuspended in 250 ml of 50 mM Tirs, 500 mM NaCl, pH7.4, at 4° C. with stirring. Cells are disrupted with 4 passes through an M-Y110 Micro fluidizer (Microfluidics) set to 500 psi, and then centrifuged at 22,000 rcf for 20 min at 4° C. The supernatant is harvested and loaded at 15 cm/h on a Histrap FF 5*1 ml column (GE) which is equilibrated with 50 mM Tirs, 500 mM NaCl, pH7.4. Host cell contaminants are removed by washing the column with equilibration buffer followed by equilibration buffer containing 20 mM imidazole and 60 mM imidazole to baseline. IDH1wt-his homodimer and IDH1wt-his/IDH1R132C-flag are eluted by equilibration buffer containing 250 mM imidazole. Fractions eluted by 250 mM imidazole are pooled together and loaded at 15 cm/h onto a column pre-packed with 10 ml ANTI-FLAG® M2 Affinity Gel (Sigma), the column is equilibrated with 50 mM Tris, 500 mM NaCl, pH7.4. After washing with equilibration buffer, IDH1wt-his/IDH1R132C-flag heterodimer is eluted by equilibration buffer containing flag peptide (0.2 mg/ml). Aliquots of IDH1wt-his/IDH1R132C-flag are flash frozen in liquid N2 and stored at −80° C. Same conditions are used for the purification of IDH1wt-his/IDH1R132H-flag.

[2] = target: IDH1-R132H homodimer enzyme (Homo sapiens (Human), UniProt O75874, R132H); test: In vitro assay IDH1-R132H homodimer, NADPH depletion assay with NADPH/NADP preincubation; assay type: biochemical; settings: 5 μM NADPH and 37.5 μM NADP
Chain of IDH1-R132H homodimer enzyme (O75874 whole entry R132H): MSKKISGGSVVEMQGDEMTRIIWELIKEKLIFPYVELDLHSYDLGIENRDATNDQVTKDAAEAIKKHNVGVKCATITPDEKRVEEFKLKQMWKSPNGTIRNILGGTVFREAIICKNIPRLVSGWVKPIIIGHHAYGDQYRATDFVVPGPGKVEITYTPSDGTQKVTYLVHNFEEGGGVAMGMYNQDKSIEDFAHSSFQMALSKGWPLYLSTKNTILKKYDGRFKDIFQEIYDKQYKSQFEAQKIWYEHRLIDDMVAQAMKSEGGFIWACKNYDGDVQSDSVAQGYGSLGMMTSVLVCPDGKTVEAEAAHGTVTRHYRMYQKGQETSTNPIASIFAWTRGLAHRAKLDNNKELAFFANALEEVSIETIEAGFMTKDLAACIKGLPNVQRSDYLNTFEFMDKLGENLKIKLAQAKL
In short: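 Conversion of alpha-ketoglutarate to 2-hydroxyglutarate tracked by NADPH depletion. Reaction started with 5 mM alpha-ketoglutarate plus NADPH substrate mix (50 μl total), 60 min at room temperature. Leftover NADPH quantified via diaphorase/resazurin fluorescence.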

[3] = target: T1, IDH2 R140Q (Homo sapiens (Human), UniProt P48735, R140Q); test: In vitro assay for IDH2m R140Q inhibitors, cofactor depletion assay, 16 hr preincubation with NADPH/NADP; assay type: biochemical; settings: read-out: IDH2 R140Q 16 hr NADPH/NADP IC50; 16 hrs preincubation with enzyme, 5 uM NADPH and 750 uM NADP
T1 sequence (P48735 40-452 R140Q): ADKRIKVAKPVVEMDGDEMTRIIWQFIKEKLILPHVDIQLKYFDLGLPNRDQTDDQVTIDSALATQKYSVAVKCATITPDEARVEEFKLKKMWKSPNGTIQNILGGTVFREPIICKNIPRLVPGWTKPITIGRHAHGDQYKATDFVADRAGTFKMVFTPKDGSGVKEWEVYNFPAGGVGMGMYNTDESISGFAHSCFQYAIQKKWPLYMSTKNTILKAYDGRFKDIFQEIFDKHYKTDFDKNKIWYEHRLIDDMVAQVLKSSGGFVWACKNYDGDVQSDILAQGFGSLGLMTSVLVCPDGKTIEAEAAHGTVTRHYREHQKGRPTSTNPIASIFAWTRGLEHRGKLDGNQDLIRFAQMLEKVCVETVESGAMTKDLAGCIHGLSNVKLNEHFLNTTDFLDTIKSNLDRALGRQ
Text: The following describes the experimental procedures used to obtain data on column 6 of Table 5.
The reaction is terminated by the addition of a second enzyme, diaphorase, and a corresponding substrate, resazurin. Diaphorase reduces resazurin to the highly fluorescent resorufin with the concomitant oxidation of NADPH to NADP, both halting the IDH2 reaction by depleting the available cofactor pool and facilitating quantitation of the amount of cofactor remaining after a specific time period through quantitative production of an easily detected fluorophore.
The test compound is then incubated for 16 hrs at room temperature with the enzyme and cofactors before starting the IDH2 reaction with the addition of 10 μl of substrate mix containing 8 mM α-KG (final concentration 1.6 mM) in the buffer described above. After a further 1 hour of incubation at room temperature, the reaction is halted and the remaining NADPH measured through conversion of resazurin to resorufin by the addition of 25 μl Stop Mix (36 μg/ml diaphorase enzyme and 60 μM resazurin; in buffer).

[4] = target: IDH1 wt/IDH1 R132H heterodimer (Homo sapiens (Human), UniProt O75874, R132H); test: In vitro assay for IDH1m R132H inhibitors, IDH1 wt/IDH1 R132H heterodimer, NADPH depletion (diaphorase/resazurin); assay type: biochemical
Chain of IDH1 wt/IDH1 R132H heterodimer (O75874 whole entry R132H): as the sequence (O75874 whole entry R132H) above
Chain of IDH1 wt/IDH1 R132H heterodimer (O75874 whole entry, stated change not applied): as the sequence (O75874 whole entry R132H) above, with H132R counted along it
In short: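 Purified IDH1wt-his/IDH1R132H-flag heterodimer (sf9 co-expression) pre-incubated 1 hr at room temperature with compound and NADPH before α-KG addition. Remaining NADPH read by diaphorase/resazurin conversion to fluorescent resorufin, 5 min at 25° C. Compounds diluted 1:50 from DMSO; IC50 determined.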

[5] = target: T1, IDH2 R140Q; test: In vitro assay for IDH2m R140Q inhibitors, cofactor depletion assay; assay type: biochemical; settings: IDH2 R140Q enzyme
In short: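 Remaining cofactor measured fluorimetrically: diaphorase/resazurin Stop Mix […], halting the reaction. Before that, mutant enzyme and compound sat 1 h at RT, then substrate mix (4 μM NADPH, 1.6 mM α-KG) was added for 16 h at RT.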

[6] = tested on: U87MG pLVX-IDH2 R140Q-neo cells; test: U87MG pLVX-IDH2 R140Q-neo cell based assay, 2-HG by LC-MS; settings: Homo sapiens, U-87 MG
[7] = target: IDH1-R132C homodimer enzyme (Homo sapiens (Human), UniProt O75874, R132C); test: In vitro assay IDH1-R132C homodimer, NADPH depletion assay with NADPH/NADP preincubation; assay type: biochemical; settings: 5 uM NADPH and 28.75 uM NADP, read-out: IDH R132C NADPH/NADP IC50
Chain of IDH1-R132C homodimer enzyme (O75874 whole entry R132C): as the sequence (O75874 whole entry R132H) above, with H132C counted along it
Method: The following describes the experimental procedures that can be used to obtain data on columns 3 and 5 of Table 5.
A test compound is prepared as 10 mM stock in DMSO and diluted to 50× final concentration in DMSO, for a 50 μl reaction mixture. IDH enzyme activity converting alpha-ketoglutarate to 2-hydroxyglutaric acid is measured using a NADPH depletion assay. In the assay the remaining cofactor is measured at the end of the reaction with the addition of a catalytic excess of diaphorase and resazurin, to generate a fluorescent signal in proportion to the amount of NADPH remaining. […] The reaction is started with the addition of 10 μl of Substrate Mix ([…], 5 mM alpha-ketoglutarate, in Assay Buffer) and the mixture is incubated for 60 minutes at room temperature.
The concentration of alpha-ketoglutarate in the Substrate Buffer is 1 mM.

[8] = tested on: Neurosphere cells (TS603); test: Cellular assay for IDH1m R132H inhibitors, 2-HG by LC-MS in neurosphere cells (TS603); assay type: cell-based; settings: 2-HG in media at 48 hours
In short: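 TS603 neurosphere cells in NeuroCult medium were dosed with compound (0.25% DMSO final) at 37 C, 5% CO2. After 48 hours, medium 2-HG was measured by LC-MS. At 72 hours, viability was read by CellTiter-Glo luminescence.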

[9] = IDH1 wt/R132H heterodimer, NADPH/NADP, not saturated, read-out: IDH1 wt/R132H NADPH/NADP IC50 not saturated
[10] = IDH1 wt/IDH1 R132H heterodimer, 300 μM NADP (saturated), read-out: IDH1 wt/R132H NADPH/NADP IC50 saturated

Chain of IDH1 wt/IDH1 R132C heterodimer (O75874 whole entry R132C): as the sequence (O75874 whole entry R132H) above, with H132C counted along it
Chain of IDH1 wt/IDH1 R132C heterodimer (O75874 whole entry, stated change not applied): as the sequence (O75874 whole entry R132H) above, with H132R counted along it

| SMILES | IC50 [1] [nM] | IC50 [2] [nM] | IC50 [3] [nM] | IC50 [4, 9] [nM] | IC50 [5] [nM] | IC50 [6] [nM] | IC50 [7] [nM] | IC50 [8] [nM] | IC50 [4, 10] [nM] |
| --- | --- | --- | --- | --- | --- | --- | --- | --- | --- |
| C[C@@H](Nc1nc(NCC(C)(C)C#N)nc(-c2cccc(C(F)(F)F)n2)n1)C1CC1 [Compound 262] | 100 to 1000 | > 1000 | 100 to 1000 | 100 to 1000 | – | – | – | – | – |
| CC(C)(O)CNc1nc(Nc2cc(F)cc(F)c2)nc(-c2nccc(C(F)(F)F)n2)n1 [Compound 325] | ≥ 1000 | – | 50 to 100 | > 1000 | < 50 | < 50 | – | – | – |
| CC(COC(C)C)Nc1nc(N[C@H](C)C2CC2)nc(-c2cccc(C(F)(F)F)n2)n1 (stereo partly drawn) [Compound 241] | 100 to 1000 | 100 to 1000 | 50 to 100 | < 50 | – | – | – | – | – |
| CC(C)(O)CNc1nc(Nc2cccc(Cl)c2)nc(-c2cccc(C(F)(F)F)n2)n1 [Compound 248] | 100 to 1000 | – | < 50 | 50 to 100 | 100 to 1000 | < 50 | – | – | – |
| FC1(F)CC[C@@H](Nc2nc(N[C@@H]3CCC(F)(F)C3)nc(-c3cncc(C(F)(F)F)n3)n2)C1 [Compound 410] | – | < 50 | – | – | < 50 | < 50 | < 50 | < 50 | < 50 |
| CC(C)(C)OC(=O)N1CCC(Nc2nc(NC3CCC(F)(F)CC3)nc(-c3cccc(C(F)(F)F)n3)n2)CC1 [Compound 274] | 100 to 1000 | > 1000 | 100 to 1000 | 100 to 1000 | – | – | – | – | – |
| CC(C)(C)Nc1nc(Nc2ccnc(C(C)(F)F)c2)nc(-c2nccc(C(F)(F)F)n2)n1 [Compound 289] | ≥ 1000 | > 1000 | 50 to 100 | 100 to 1000 | < 50 | < 50 | – | – | – |
| CC(CC#N)Nc1nc(NC(C)CC#N)nc(-c2cccc(Cl)n2)n1 (stereo not drawn) [Compound 271] | 100 to 1000 | 100 to 1000 | 100 to 1000 | 100 to 1000 | – | – | – | – | – |
| N#CC1(c2cc(Nc3nc(N[C@H]4CCC(F)(F)C4)nc(-c4cccc(C(F)(F)F)n4)n3)ccn2)CC1 [Compound 133] | – | 50 to 100 | – | < 50 | < 50 | < 50 | 100 to 1000 | < 50 | – |
| FC1(F)CC(Nc2nc(Nc3ccnc(C(F)(F)F)c3)nc(-c3cccc(C(F)(F)F)n3)n2)C1 [Compound 190] | – | 100 to 1000 | – | < 50 | < 50 | < 50 | > 1000 | < 50 | – |
| C[C@@H](Nc1nc(Nc2ccnc(C(F)(F)F)c2)nc(-n2ccc(C(F)(F)F)n2)n1)C(F)(F)F [Compound 400] | – | 100 to 1000 | – | – | < 50 | < 50 | 100 to 1000 | < 50 | < 50 |
| FC1(F)CC[C@H](Nc2nc(Nc3ccnc(C(F)(F)F)c3)nc(-c3cccc(C(F)(F)F)n3)n2)C1 [Compound 158] | – | 50 to 100 | – | < 50 | < 50 | < 50 | 100 to 1000 | < 50 | – |
| FC1(F)CC2(CC(Nc3nc(NC4CC5(C4)CC(F)(F)C5)nc(-c4cccc(Cl)n4)n3)C2)C1 [Compound 265] | 100 to 1000 | > 1000 | 100 to 1000 | 100 to 1000 | – | – | – | – | – |
| C[C@@H](Nc1nc(NCCOc2ccccc2)nc(-c2cccc(C(F)(F)F)n2)n1)C1CC1 [Compound 246] | 50 to 100 | 100 to 1000 | < 50 | 50 to 100 | 50 to 100 | 50 to 100 | – | – | – |
| CC(C)Nc1nc(Nc2ccnc(C(C)(F)F)c2)nc(-c2nccc(C(F)(F)F)n2)n1 [Compound 298] | ≥ 1000 | > 1000 | 50 to 100 | 100 to 1000 | < 50 | < 50 | – | – | – |
| N#CC1(c2cc(Nc3nc(N[C@@H]4CCC(F)(F)C4)nc(-n4ccc(C(F)(F)F)n4)n3)ccn2)CC1 [Compound 350] | – | < 50 | – | – | < 50 | < 50 | 50 to 100 | < 50 | < 50 |
| CC(C)(C#N)CNc1nc(Nc2ccnc(C(C)(F)F)c2)nc(-c2cccc(C(F)(F)F)n2)n1 [Compound 267] | 100 to 1000 | > 1000 | 50 to 100 | 100 to 1000 | < 50 | < 50 | – | – | – |
| FC1(F)CC[C@H](Nc2nc(Nc3ccnc(C(F)(F)F)c3)nc(-n3ccc(C(F)(F)F)n3)n2)C1 [Compound 393] | – | 50 to 100 | – | – | < 50 | < 50 | 100 to 1000 | < 50 | < 50 |
| N#CC1(c2cc(Nc3nc(N[C@@H]4CCC(F)(F)C4)nc(-c4cccc(C(F)(F)F)n4)n3)ccn2)CC1 [Compound 137] | – | < 50 | – | < 50 | < 50 | < 50 | 100 to 1000 | < 50 | – |
| N#CC1(c2cc(Nc3nc(N[C@H]4CCC(F)(F)C4)nc(-n4ccc(C(F)(F)F)n4)n3)ccn2)CC1 [Compound 174] | – | < 50 | – | < 50 | < 50 | < 50 | 50 to 100 | < 50 | – |
